Test results reported in PMC8469489, “Effect of Lactic Acid Bacteria on the Pharmacokinetics and Metabolism of Ginsenosides in Mice” (Pharmaceutics, 2021).
Like-named read-outs stand apart in the source and are kept apart here. Values belong to the molecule of their own block, whether it stands above or below them.

Experiments:
[1] = system: lactic acid bacteria (LAB); experiment: Incubation of single ginsenoside with LAB (formation rate of metabolite ginsenoside); type: in vitro ADME; conditions: 7 days, 37 °C, MRS broth
Method: To compare the involvement of LAB on individual ginsenoside, an aliquot (10 μL) of each ginsenoside stock solution (10 mM in methanol) was mixed with autoclaved MRS broth (550 mg/10 mL in distilled water) and added 2 g of LAB (contained 1 billion CFU). Then, the mixture was incubated for 7 days in a shaking incubator at 37 °C and 300 rpm. For the analysis of ginsenosides, 0.2 mL aliquot of incubation mixture was collected every 24 h for 7 days. The incubation medium was diluted 100-fold with distilled water and stored at −80 °C. For the ginsenoside analysis, 200 μL of an IS solution (0.05 ng/mL berberine in methanol) was added to 30 μL of 100-fold diluted samples.

[2] = set-up: method as in PMID 26470874; conditions: 10–60 mg, intramuscular injection; cited from earlier work
[3] = system: lactic acid bacteria (LAB); experiment: In vitro RGE fermentation with LAB
[4] = Recovery of ginsenosides from urine and feces for 48 h after RGE, amoxicillin vs control; conditions: feces 48 h after single oral RGE 2 g/kg; vs control
Method: Aliquots (200 μL) of an IS (0.05 ng/mL berberine in methanol) were added to 30 μL of plasma or urine samples. Aliquots (600 μL) of an IS methanol solution containing 0.05 ng/mL berberine were added to 100 μL of 10% feces homogenate samples. […] After centrifugation, 200 μL of the supernatant was transferred to a clean tube and dried under a nitrogen stream at 40 °C. The residue was reconstituted using 100 μL of 70% methanol supplemented with 0.1% formic acid, and a 10-μL aliquot was injected into the LC–MS/MS system.

[5] = Recovery of ginsenosides from urine and feces for 48 h after RGE, amoxicillin with or without LAB; conditions: feces 48 h after single oral RGE 2 g/kg; Amoxicillin + LAB vs amoxicillin
Method: (§2) Mice received amoxicillin (n = 12, 20 mg/kg, dissolved in water at 2 mL/kg, twice daily) for 3 days via oral gavage. From the 4th day, mice from the LAB + amoxicillin treatment group received LAB (2 g/kg suspended in water at 2 mL/kg, once daily) for 7 days via oral gavage. Mice from the amoxicillin treatment group received water (2 mL/kg, once daily) for 7 days via oral gavage.

[6] = Pharmacokinetics of ginsenosides after single oral RGE after amoxicillin with or without repeated LAB treatment; conditions: single oral RGE 2 g/kg
Method: as §2
Blood sampling was performed using a sparse sampling method via the right or left retro-orbital vein under isoflurane anesthesia at 0, 2, 4, and 8 h after the RGE administration through the heparinized capillary tube. […] After centrifugation of the blood samples at 10,000× g for 1 min, 30 μL aliquots of plasma were stored at −80 °C until the analysis of the ginsenosides. Subsequent protocols were identical to the amoxicillin treated group.
Pharmacokinetic parameters were calculated using WinNonlin (version 5.1, Pharsight, Mountain View, CA, USA) by a non-compartmental analysis.

[7] = Pharmacokinetics of ginsenosides after single oral RGE with or without amoxicillin treatment; type: in vivo, mice; conditions: mouse, in vivo, po, 2 g/kg
Method: Male ICR mice (7-weeks-year-old, 30–35 g) were purchased from Samtako Co. (Osan, Kyunggi-do, Korea). Animals were acclimatized for 1 week in an animal facility at Kyungpook National University. Food and water were available ad libitum.
(§1) Before blood sampling, mice were anesthetized using isoflurane (isoflurane vaporizer to 2% with oxygen flow at 0.8 L/min) for 5 min.

[8] = system: lactic acid bacteria (LAB)
[9] = Plasma protein binding by rapid equilibrium dialysis; type: in vitro ADME; conditions: 4 h at 37 °C
Method: Briefly, 100 μL of mouse plasma containing 1 μM of each ginsenoside was added to the semipermeable membrane’s inner sample chamber (molecular weight cut-off 8000 Da), and 300 μL of PBS was added to the outer buffer chamber. The samples were then incubated for 4 h at 37 °C on a shaking incubator at 300 rpm, followed by collecting 30-μL aliquots from both the sample and buffer chambers.
Subsequent protocols were identical to the method described above except for the use of ice-cold IS solution (200 μL; 0.05 ng/mL berberine in acetonitrile) to 30 μL of the reaction samples.
Plasma protein binding was calculated using the following equation [31, 60]: Plasma protein binding=(1−Drug concentration in buffer chamber/Drug concentration in plasma sample chamber)×100(%).

Caco-2 cell monolayers = conditions: Caco-2, pH 7.4
Method: (§3) The culture medium was replaced every other day. On the day of the experiment, the growth medium was discarded, and the attached cells were washed with prewarmed HBSS (pH 7.4) and preincubated with HBSS for 20 min at 37 °C, and the permeability assay was conducted as previously described [53]. Briefly, to measure the apical to basal permeability of each ginsenoside, 0.5 mL of HBSS containing 50 µM of individual ginsenoside (GRb1, GRb2, GRc, GRd, GRe, GRf, GRg1, GRg3, GRh1, GRh2, GF1, GF2, CK, PPD, or PPT) was added to the apical side (inside of the insert) and 1.5 mL of fresh HBSS was added to the basal side of the insert. […] Aliquots (0.1 mL) in basal side were transferred to clean tubes and stored at −80 °C until further analysis. Transport study was performed for 1 h based on the linearity of the cumulative transport amounts of ginsenosides against the transport time. The integrity of cell monolayers was evaluated before and after the permeability experiments by measuring the transepithelial electrical resistance (TEER) values using an epithelial volt/ohm meter (World Precision Instruments; Sarasota, FL, USA). […]
(§4) For the permeability calculation, the transport rate of ginsenosides and marker conpounds was calculated from the slope of the regression line from the mean permeated amounts vs. incubation time plot.

[10] = Plasma amoxicillin concentrations after repeated oral administration of amoxicillin; type: in vivo, mice; conditions: at 24, 48, and 72 h after the beginning of amoxicillin treatment (20 mg/kg/day oral, twice daily, 3 days)
Method: as §1
The standard calibration curve for amoxicillin was linear in the concentration range of 2–5000 ng/mL for the plasma samples, and the interday and intraday precision and accuracy were <15%.

LAB = system: LAB; set-up: method as in PMID 15902467; conditions: cited from earlier work
Caco-2 cells = conditions: cited from earlier work
[11] = cited from earlier work
[12] = Caco-2 permeability (apical to basal); conditions: human, Caco-2, pH 7.4
Method: as §3, §4

Plasma amoxicillin concentration [10]: 0.9 to 1.8 µg/mL
Structure (SMILES): CC1(C)S[C@@H]2[C@H](NC(=O)[C@H](N)c3ccc(O)cc3)C(=O)N2[C@H]1C(=O)O [amoxicillin]
Concentration of amoxicillin that must be maintained to inhibit the growth of LAB (LAB): ≤ 2 µg/mL

fraction unbound at 4 h, 1 μM ([9]; pooled mouse plasma): 0.103
Papp A→B at 1 h [12]: 21.6 ± 2.35 ×10⁻⁶ cm/s
Structure (SMILES): CC(C)NCC(O)COc1cccc2ccccc12 (centres unmarked) [propranolol]
Papp,AB reference values (Caco-2 cells): 18.8–33.1 × 10^−6 cm/s
Plasma protein binding reference values [11]: 87–96%

More lines, now with the values behind:

Structure (SMILES): CC(C)=CCC[C@](C)(O)[C@H]1CC[C@]2(C)[C@@H]1[C@H](O)C[C@@H]1[C@@]3(C)CC[C@H](O[C@@H]4O[C@H](CO)[C@@H](O)[C@H](O)[C@H]4O[C@@H]4O[C@H](CO)[C@@H](O)[C@H](O)[C@H]4O)C(C)(C)[C@@H]3CC[C@]12C [GRg3]
Metabolite formation on incubation of single ginsenoside with LAB [1]: GRh2 and PPD were produced
Increase of plasma exposure over the 6-fold dose range [2]: 7.3 fold
Increase of ginsenoside by fermentation of RGE with LAB ([3]; 7 days, relative to the first day): about 30%
Fecal recovery, change by the amoxicillin treatment [4]: increased
Fecal recovery, change by LAB treatment [5]: significantly decreased
AUC ([6]; Amoxicillin + LAB (LAB 2 g/kg once daily 7 days), AUC 0 to 48 h): 25.3 ± 10.6 ng·h/mL
Cmax ([6]; Amoxicillin + LAB): 4.8 ± 1.9 ng/mL
Half-Life ([6]; Amoxicillin + LAB): 5.3 ± 1.1 h
MRT ([6]; Amoxicillin + LAB): 3.5 ± 0.9 h
Tmax ([6]; Amoxicillin + LAB): 2.5 ± 1.0 h
Detection in mouse plasma following repeated LAB administration in addition to amoxicillin [6]: detected
Detection in plasma, control mice and amoxicillin group [6]: not detected
Plasma exposure / pharmacokinetic parameters, LAB treatment compared with amoxicillin group [6]: increased

Structure (SMILES): CC(C)=CCC[C@](C)(O)[C@H]1CC[C@]2(C)[C@@H]1[C@H](O)C[C@@H]1[C@@]3(C)CC[C@H](O)C(C)(C)[C@@H]3CC[C@]12C [PPD, 20(S)-proptopanaxadiol]
Half-Life [7]: 7.9 ± 1.8 h
MRT [7]: 12.6 ± 4.7 h
Alteration of ginsenoside by fermentation of RGE with LAB [8]: significantly increased

Structure (SMILES): CC(C)=CCC[C@](C)(O)[C@H]1CC[C@]2(C)[C@@H]1[C@H](O)C[C@@H]1[C@@]3(C)CC[C@H](O)C(C)(C)[C@@H]3[C@@H](O)C[C@]12C [PPT, 20(S)-protopanaxatriol]
Half-Life [7]: 20.4 ± 2.3 h
MRT [7]: 20.2 ± 2.2 h
Plasma protein binding ([9]; 1 μM, mouse plasma): over 99%
Papp,AB (Caco-2 cell monolayers): 3.72 ± 0.56 × 10^−6 cm/s
Alteration of ginsenoside by fermentation of RGE with LAB ([3]; 7 days incubation): significantly increased
Fecal recovery, change by the amoxicillin treatment [4]: significantly decreased
Fecal recovery, change by LAB treatment [5]: significantly increased
